Measurements reported in patent publication US5352705A, “Inhibitors of farnesyl protein transferase” (Merck & Co., Inc., priority 1992, dated 1994).

Assays:
[1] = biological target: T1, Farnesyl-protein transferase (Ftase) from bovine brain (Bos taurus, UniProt P29702+P49355); assay: In vitro inhibition of ras farnesyl transferase; assay type: biochemical; settings: Ras-CVLS 3.5 μM, 0.25 μM [3H]FPP, partially purified bovine brain enzyme; read-out: IC50 (concentration of compound which gives 50% inhibition of FTase under the described assay conditions)
T1 construct: Farnesyl-protein transferase (Ftase) from bovine brain was chromatographed on DEAE-Sephacel; from tissue; host or cells: bovine brain, partially purified (DEAE-Sephacel, N-octyl agarose, mono Q HPLC)
Experimental: In vitro inhibition of ras farnesyl transferase
Farnesyl-protein transferase (Ftase) from bovine brain was chromatographed on DEAE-Sephacel (Pharmacia, 0-0.8 M NaC1 gradient elution), N-octyl agarose (Sigma, 0-0.6 M Nacl gradient elution), and a mono Q HPLC column (Pharmacia, 0-0.3 M NaC1 gradient). Ras-CVLS at 3.5 μM, 0.25 μM [3H]FPP, and the indicated compounds were incubated with this partially purified enzyme preparation. The Ftase data presented below is a measurement of the ability of the test compound to inhibit RAS farnesylation in vitro.
*(IC50 is the concentration of compound which gives 50% inhibition o
FTase under the described assay conditions)

Ras farnesylation = settings: cited from earlier work

Compound	IC50 [1] [nM]	Inhibition of Ras farnesylation in vivo (Ras farnesylation)
CC[C@H](C)[C@H](NC[C@@H](N)CS)C(=O)NCc1cccc(Cl)c1Cl [N-[2(R)-Amino-3-mercaptopropyl]-L-isoleucine-2,3-dichlorobenzylamide]	25	
CC[C@H](C)C(=O)O[C@H]1CCC=C2C=C[C@H](C)[C@H](CC[C@@H]3C[C@@H](O)CC(=O)O3)[C@H]21 [compactin]		Inhibition of Ras farnesylation in vivo has been demonstrated
CC[C@H](C)C(=O)O[C@H]1C[C@@H](C)C=C2C=C[C@H](C)[C@H](CC[C@@H]3C[C@@H](O)CC(=O)O3)[C@H]21 [lovastatin]		Inhibition of Ras farnesylation in vivo has been demonstrated

Now from value to compound, other results behind:

IC50 [1] [nM]	Compound	Inhibition of Ras farnesylation in vivo (Ras farnesylation)
63	CC[C@H](C)[C@H](NC[C@@H](N)CS)C(=O)NCCc1cccc(Cl)c1 [N-[2(R)-Amino-3-mercaptopropyl]-L-isoleucine-3-chlorophenethylamide]	
35	CC[C@H](C)[C@H](NC[C@@H](N)CS)C(=O)Nc1cccc(C)c1C [N-[2(R)-amino-3-mercaptopropyl]-L-isoleucine-2,3-dimethylphenylamide]	
63	CC[C@H](C)[C@H](NC[C@@H](N)CS)C(=O)Nc1ccccc1 [N-[2(R)-amino-3-mercaptopropyl]-L-isoleucine-anilide]	
